Test results published in US20130041005A1, “PHARMACEUTICAL COMPOSITIONS COMPRISING NEUROPILIN INHIBITORS, AND THEIR USE FOR THE PREVENTION AND/OR TREATMENT OF ANGIOGENIC DISORDERS AND CANCERS” (TRAGEX PHARMA, priority 2011, published 2013).
“Also recorded” adds a separate entry of the source.

What was measured:
[1] = system: HeLa; assay: WST-1 proliferation assay, HeLa; assay type: cell-based; conditions: Homo sapiens; for IC50: Cervical HeLa, 72 h, read-out: Anti-proliferative activity IC50 (μM) ± SD; for inhibition at 0.1 µM / inhibition at 0.5 µM / inhibition at 1 µM: HeLa
Source text: (§1) Several cancer cell lines were used: breast cancer cells (MDA-MB-231 (ATTCC® Number HTB-26™), MDA-MB-436 (ATTCC® Number HTB-130™), MDA-MB-438, BT-474 (ATTCC® Number HTB-20™)); cervical cancer cells (HeLa (ATTCC® Number CCL-2™)); colon cancer cells (HCT-116 (ATTCC® Number CCL-247™) and HT-29 (ATTCC® Number HTB-38™)); osteosarcoma cells (U2OS (ATTCC® Number HTB-96™)); pancreas cancer cells (MIA PaCa-2 (ATTCC® Number CRL-1420™) and Panc-10.5 (ATTCC® Number CRL-2547™)); prostate cancer cells (PC-3 (ATTCC® Number CRL-1435™) and LNCaP (ATTCC® Number CRL-1740™)); brain cancer cells (U87 glioblastoma (ATTCC® Number HTB-14™) and SH-SYSY neuroblastoma (ATTCC® Number CRL-2266™)).
(§2) All the cancer cell lines were maintained in cultured in DMEM GlutaMAX™ (GIBCO Invitrogen, France, cat no 31966047) enhanced with 10% foetal bovine serum (GIBCO Invitrogen, France, cat no 10270-106) and 1% penicillin G/streptomycin (GIBCO Invitrogen, France, cat no 15140-122). Only Panc-10.5 cells were cultivated in RPMI 1640 medium (Gibco) supplemented with 2 mM L-glutamine, 1.5 g/L sodium bicarbonate, 4.5 g/L glucose, 10 mM HEPES, 1 mM sodium pyruvate, 10 Units/ml human insulin, […] (SVF): 15% (75 ml in 500 ml of medium).
(§3) Cells were grown as subconfluent monolayer and cultured in 75 cm^2 flasks at 37° C., 5% CO2 in a humidified atmosphere, and medium was changed every two days. Only cells from passages 2-6 were used for the experiments.
(§4) After observation of cells under the microscope, old media were removed and the adherent cells washed gently twice with PBS (Phosphate Buffer Saline, —Ca^2+, —Mg^2+, Lonza cat no: 17-512F/12). All cells were detached with 3 ml of trypsin/EDTA (chelator of calcium and magnesium ions) (Lonza), incubated for 5 min at 37° C., and examined using a microscope to ensure that the cells were detached and floating. Then, 3 ml TNS (Trypsin Neutralizing Solution, Lonza, France, cat no CC-5002) or of culture medium were added to inactivate the trypsin, and the cell suspension was transferred in a falcon and centrifuged for 7 min at 1400 rpm. The supernatant was removed and the cell pellet resuspended in […] of culture medium. 50 μl of this solution were transferred in 20 μl of isotonic solution and the cells were counted by count cellular (Beckman Coulter). At day 0, 200 μl of cellular suspension (3.10^3 cells/well for the HUVEC cells, breast cancer cells (MDA-MB-231 1.10^4 cells/well, MDA-MB-436 1.10^4 cells/well, MDA-MB-438 2.10^4 cells/well, BT-474 2.5.10^4 cells/well); cervical cancer cells (HeLa 5.000 cells/well); colon cancer cells (HCT-116 5.10^3 cells/well, HCT-29 1.1.10^4 cells/well); osteosarcoma cells (U2OS 8.10^3 cells/well); pancreas cancer cells (MIA PaCa-2 5.10^3 cells/well, Panc-10.5 1.5.10^4 cells/well); prostate cancer cells (PC-3 4.10^3 cells/well, LNCaP 2.10^4 cells/well); brain cancer cells (U87 5.10^3 cells/well, SH-SYSY 8.10^4 cells/well)) were then plated on 96 well plates and incubated at 37° C. in a humidified atmosphere of 5% CO2 for 24 h.
(§5) At day 1, the compounds 1 or 2 of the invention were added at increasing concentrations (0.1-10 μM) in the wells and plates were incubated at 37° C. in a humidified atmosphere of 5% CO2 for 72 h.
(§6) The cell proliferation WST-1 assay is a colorimetric assay for the quantification of cell proliferation and viability, based on the enzymatic cleavage of the tetrazolium salt WST-1 added to the culture medium, to a water soluble colored formazan dye, detected by absorbance at 450 nm, by mitochondrial succinate-tetrazolium reductase in viable cells. An augmentation in enzyme activity will then lead to an increase in the amount of formazan dye formed, which directly correlates to the number of metabolically active cells in the culture.
(§7) After an incubation period of 72 h, at day 4, were prepared the 19 ml medium with reagent WST-1 1 ml ([…]). The medium was removed from the 96 microplate and 200 μl of solution WST-1/medium were added for each well. […]

[2] = system: HCT-116; assay: WST-1 proliferation assay, HCT-116; assay type: cell-based; conditions: Homo sapiens; for IC50: Colon HCT-116, 72 h, read-out: Anti-proliferative activity IC50 (μM) ± SD; for inhibition at 0.1 µM: HCT-116, 0.1 μM; for inhibition at 0.5 µM: HCT-116, 0.5 μM; for inhibition at 1 µM: HCT-116, 1 μM
Source text: as §1, §2, §3, §4, §5, §6, §7

[3] = system: GRANTA-519; assay: WST-1 proliferation assay, GRANTA-519; assay type: cell-based; conditions: Homo sapiens; Mantle cell lymphoma GRANTA-519; read-out: Anti-proliferative activity IC50 (μM) ± SD
Experimental: as §2
Cells were grown as subconfluent monolayer and cultured in 75 cm^2 flasks at 37° C., 5% CO2 in a humidified atmosphere, and medium was changed every two days. […]
The cell proliferation WST-1 assay is a colorimetric assay for the quantification of cell proliferation and viability, based on the enzymatic cleavage of the tetrazolium salt WST-1 added to the culture medium, to a water soluble colored formazan dye, detected by absorbance at 450 nm, by mitochondrial succinate-tetrazolium reductase in viable cells. […]
After an incubation period of 72 h, at day 4, were prepared the 19 ml medium with reagent WST-1 1 ml ([…]). […] The cells were incubated at 37° C. in a humidified atmosphere of 5% CO2 for 1 h 30 and the absorbance at 450-655 nm was measured by Microplate Manager 5.2 (Bio-Rad).

[4] = system: breast cancer cells (MDA-MB-231); assay: Apoptosis assay (Annexin V-FITC/PI), MDA-MB-231; assay type: cell-based, Human; conditions: IC50 concentration, 72 h (FIG. 5B)
Experimental: The level of apoptosis in endothelial (HUVEC) and breast cancer cells (MDA-MB-231) was detected by Annexin V-FITC Apoptosis Detection Kit (ref 556547, BD Biosciences, France) according to the manufacturer's instructions. Briefly, HUVEC and MDA-MB-231 cells were treated separately with DMSO (control) and the compounds of the invention at the concentration corresponding to the IC50, obtained by the proliferation assay, for 72 h. After treatment, all cell including both detached and attached cells were collected, centrifugated at 14000 rpm for 5 min and the apoptotic cells were detected by staining with Annexin V-FITC and (propidium iodide) PI. The cells were resuspended in 100 μl Annexin V binding buffer (10 mM Hepes/NaOH, pH 7.4, 140 mM NaCl, […]) containing 5 μl of Annexin V-FITC and 5 μl of PI (propidium iodide). Samples were gently mixed and incubated for 2 h on ice and in the dark. Viable and apoptotic cell were detected by flow citometry (FACS Calibur Becton Dickinson, France). Apoptotic cells include both the early apoptotic portion (Annexin V-positive) and the late apoptotic portion (Annexin V- and PI-positive). Staurosporine is used as a positive control of apoptosis induction.

SMILES | IC50 [1] [µM] | inhibition at 0.1 µM [1] [%] | inhibition at 0.5 µM [1] [%] | inhibition at 1 µM [1] [%] | IC50 [2] [µM] | inhibition at 0.1 µM [2] [%] | inhibition at 0.5 µM [2] [%] | inhibition at 1 µM [2] [%] | IC50 [3] [µM] | induction of apoptosis in cancer cells [4]
Cc1ccc(-c2nc3ccccc3[nH]2)cc1NC(=S)NC(=O)c1ccc2c(c1)OCCO2 [Compound 1, N-[5-(1H-benzimidazol-2-yl)-2-methylphenyl]-N′-(2,3-dihydro-1,4-benzodioxin-6-ylcarbonyl)thiourea] | 0.4 ± 0.04 | 13 | 64 | 68 | 1 | 7 | 51 | 56 | 1 | induced the apoptosis; also recorded: induction of apoptosis
O=C(NC(=S)Nc1cccc(-c2nc3ccccc3[nH]2)c1)c1ccc2c(c1)OCCO2 [Compound 2, N-[3-(1H-benzimidazol-2-yl)phenyl]-N′-(2,3-dihydro-1,4-benzodioxin-6-ylcarbonyl)thiourea] | 0.05 ± 0.04 | 62 | 64 | 67 | 1 | 49 | 58 | 60 | 0.5 ± 0.02 | induced the apoptosis; also recorded: induction of apoptosis
